Measurements reported in PMC9481570, “A small molecule antagonist of SMN disrupts the interaction between SMN and RNAP II” (Nature Communications, 2022).

Legend:
SMN = molecular target: T1, SMN (Homo sapiens, UniProt Q16637); details: physiological ligand; read-out: binding affinity (Kd) to SMN; cited from earlier work
T1 construct: endogenous in cells; host or cells: U2OS

mCherry-SMN = molecular target: T2, mCherry-SMN (Homo sapiens, UniProt Q16637); test: Fluorescence colocalization in U2OS cells, mCherry-SMN WT; type: cell-based; details: 10 μM, 24 h
T2 construct: the coding DNAs of full-length SMN, SND1 and TDRD3 were cloned into mCherry2-C1 or GFP-C1 vector; expressed in transfected cells; host or cells: U2OS
T2 sequence (Q16637 whole entry): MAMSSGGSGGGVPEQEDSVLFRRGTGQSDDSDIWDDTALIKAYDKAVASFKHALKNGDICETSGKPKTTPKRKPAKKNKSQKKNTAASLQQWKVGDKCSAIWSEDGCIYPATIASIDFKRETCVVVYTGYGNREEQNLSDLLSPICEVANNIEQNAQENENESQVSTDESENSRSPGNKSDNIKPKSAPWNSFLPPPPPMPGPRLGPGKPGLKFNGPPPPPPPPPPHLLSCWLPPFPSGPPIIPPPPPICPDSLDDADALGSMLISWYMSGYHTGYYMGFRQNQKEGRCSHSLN
Procedure: (§1) U2OS cells (ATCC, HTB-96) were plated in a 35 mm FluoroDish with a 0.17 mm coverslip bottom (World Precision Instruments, FD35-100) for 12–24 h and transfected with 1.0 μg mCherry-SMN WT (wild-type) or mutant plasmids. Media was changed 4–6 h after transfection and cells were cultured for another 24 h. 10 μM CCVJ-Cmpd 1 was added for 24 h treatment. Then the treated cells were rinsed by PBS and the media replaced with phenol-free FluoroBright DMEM (Thermo Fisher, A1896701) for analysis by using Zeiss LSM880 microscopy.

[1] = test system: mCherry-SMN cage mutant (W102); test: Fluorescence colocalization in U2OS cells, mCherry-SMN cage mutant; type: cell-based, human; details: 10 μM, 24 h, W102 mutated
Procedure: as §1

SMN Tudor domain [2] = molecular target: T3, SMN Tudor domain (Homo sapiens, UniProt Q16637); test: Fluorescence of CCVJ-Cmpd 1 in solution on addition of SMN Tudor domain; type: binding; details: 10 μM SMN Tudor with 10 μM CCVJ-Cmpd 1, in solution
T3 construct: SMN (aa 82–147); His (N, cleaved yes); made in house; host or cells: E. coli BL21 (DE3) Codon plus RIL
T3 sequence (Q16637 82-147): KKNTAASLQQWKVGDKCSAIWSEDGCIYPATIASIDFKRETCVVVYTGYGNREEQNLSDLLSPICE
Excerpt: Supplementary Fig. 5 Interaction between Tudor domain of SMN and CCVJ-Cmpd 1 triggers fluorescence signals. a Fluorescence signals of 10 µM SMN Tudor, 10 µM CCVJ-Cmpd 1, and mixture of 10 µM SMN Tudor with 10 µM CCVJ-Cmpd 1 were detected by fluorescence microscope (Nikon, ECLIPSE Ti-E), under the excitation of blue light. The […]
the SMN Tudor domain protein. Exposure time: 1 s. b Fluorescence signals for addition of different concentrations of the SMN Tudor domain protein to 5 µM CCVJ-Cmpd 1 detected by Infinite M1000 Pro microplate reader (Tecan) with an excitation wavelength of 440 nm and an emission wavelength of 460-600 nm. Data shown are representative of three […]

SMN Tudor domain [3] = molecular target: T3, SMN Tudor domain; test: ITC binding to Tudor domain of SMN; details: Supplementary Figs. 2, 4 and 11a (VP-ITC); read-out: Kd, ITC binding curve, Tudor domain of SMN
Excerpt: The coding DNA fragments of following Tudor domains were cloned into pET28-MHL vector: SMN (aa 82–147), UHRF1 (aa 126–285), SMNDC1 (aa 53–130), TDRD3 (aa 554–611), SND1 (aa 650–910), TDRD2 (aa 327–420), FXR1 (aa 2–132), PHF1 (aa 28–87), SGF29 (aa 115–293), JMJD2A (aa 897–1101), 53BP1 (aa 1483–1606), SETDB1 (aa 190–410), LBR (aa 1–67), ZGPAT (aa 120–271). The coding regions of chromodomain of CBX7 (aa 8–62), PWWP domain of DNMT3A (aa 275–417), WD40 repeats of WDR5 (aa 24–334) and CW domain of ZCWPW2 (aa 21–78) were also subcloned into pET28-MHL vector to generate N-terminally His-tagged fusion protein. The MBT repeats of L3MBTL1 (aa 200–522) and L3MBTL2 (aa 170–625) were subcloned into pET28GST-LIC vector to generate N-terminally GST-His-tagged fusion protein. All the plasmids were generated by ligase independent cloning (Vazyme Biotech, C112 or ABclonal Technology, RK21020). […] The proteins were further purified by Superdex75 or Superdex200 gel-filtration column (GE Healthcare) in a buffer containing 20 mM Tris-HCl, pH 7.5, 150 mM NaCl and 1 mM DTT. For crystallization experiments, purified proteins were concentrated to 18 mg/mL for SMN, 23 mg/mL for UHRF1 and 10 mg/mL for TDRD3 in the gel-filtration buffer. All the mutations were introduced with the QuikChange II XL site-directed mutagenesis kit (Stratagene, 200522) and confirmed by DNA sequencing. Mutant proteins were also expressed in E. coli BL21 (DE3) Codon plus RIL and purified using the same procedures described above. The molecular weight of all protein samples was measured by mass spectrometry.
For the ITC measurement, the concentrated proteins were diluted into 20 mM Tris-HCl, pH 7.5, 150 mM NaCl (ITC buffer); the lyophilized compounds were dissolved in the same buffer, and the pH value was adjusted by adding 2 M NaOH or 2 M HCl. The compounds that could not be dissolved in the ITC buffer were dissolved in DMSO with the accessible highest concentration. Compound concentrations were calculated from the mass and the volume of the solvent. For the ITC assay with compound dissolved in DMSO, the protein was diluted by ITC buffer containing same final concentration of DMSO. All measurements were performed in duplicate at 25 °C, using a VP-ITC (MicroCal, Inc.), an iTC-200 (MicroCal, Inc.), or a Nano-ITC (TA, Inc.) microcalorimeter. The protein with a concentration of 50–100 μM was placed in the cell chamber, and the compounds with a concentration of 0.5–2 mM in syringe was injected in 25, 20, or 20 successive injections with a spacing of 180, 150, or 120 s for VP-ITC, iTC-200, or Nano-ITC, respectively, as previously described[30]–[32]. iTC-200 or Nano-ITC data were consistent with those from the VP-ITC instrument, based on ITC results of SMN-compound 1 detected by using all the instruments. Control experiments were performed under identical conditions to determine the heat signals that arise from injection of the compounds into the buffer. Data were fitted using the single-site binding model within the Origin software 7.0 package (MicroCal, Inc.) or the independent model within the Nano-Analyze software package (TA, Inc.).

T1 sequence (Q16637 whole entry): as the sequence (Q16637 whole entry) above

Row | Structure (SMILES) | Kd (SMN) [µM] | colocalization with mCherry-SMN (mCherry-SMN) | colocalization with mCherry-SMN cage mutant [1] | fluorescence signal on addition of SMN Tudor domain protein (SMN Tudor domain [2]) | Kd (SMN Tudor domain [3]) [µM]
1 | CN=C(NC)NCCC[C@H](N)C(=O)O [symmetric dimethylarginine] | 476 |  |  |  | 
2 | N#C/C(=C\c1cc2c3c(c1)CCCN3CCC2)C(=O)NCCNC(=O)Cn1c2c(c(=N)c3c1CCC3)CCC2 [CCVJ-Cmpd 1] |  | colocalized | not observed | enhanced | 22 ± 1
